What all share (assay type): in vivo
Data set [1] can be described thus: Pharmacokinetic test of pharmaceutical preparations in beagle dogs. The note with it: po, fasted, gavage, 100 mg of compound of Formula (1) per dog, LC-MS/MS. The procedure:
Nine healthy beagle dogs were selected, which were divided into the group of the compound of Formula (1), capsules of Formulation Example 1, and capsules of Formulation Example 11. During the experiment, the beagle dogs were fasted overnight before administration, and venous blood was collected before administration, and plasma was separated as the blood drug concentration sample at […]. Each beagle dog was administrated by gavage at a dose of 100 mg of the compound of Formula (1), respectively. After administration, blood samples were collected at 15 min, 0.5 h, 1 h, 2 h, 4 h, 8 h, and 24 h respectively. Each sample was collected about 0.5 ml, anticoagulated with heparin sodium, placed on ice after collection, and centrifuged within 1 hour to separate plasma, the drug concentration in plasma was measured by LC-MS/MS.

The nature of data set [2]: Pharmacokinetic test of pharmaceutical preparations in rats. The conditions noted are these: both sexes, rat, po, fasted, gavage, 20 mg/kg of compound of Formula (1), LC-MS/MS. The source says: Thirty healthy rats were selected and randomly divided into 5 groups, 6 rats (3 females, 3 males) per group, which were respectively the groups of the compound of Formula (1), the capsules of Formulation Example 1, the granules of Formulation Example 4, the tablets of Formulation Example 7, and the soft capsules of Formulation Example 10. During the experiment, the rats were fasted overnight before administration, and blood was collected from the orbit before administration, and the plasma was separated, which was taken as the blood concentration sample at 0 h. The gavage solutions were prepared by dispersing with purified water, the concentration of the gavage solutions was 2 mg/ml, and each rat was administered with the compound of Formula (1) at a dose of 20 mg/kg respectively. After administration, blood samples were collected at 15 min, 0.5 h, 1 h, 2 h, 4 h, 6 h, and 8 h, and each sample was collected about 0.5 ml, anticoagulated with heparin sodium, placed on ice after collection, and centrifuged within 1 hour to separate plasma, which was stored at −80° C. for later test. The drug concentration in plasma was measured by LC-MS/MS.

Data set [3] can be described thus: Pharmacokinetic test of compositions containing the compound of Formula (1) in rats. The conditions noted are these: rat, po, fasted, gavage, 20 mg/kg of compound of Formula (1), LC-MS/MS. The protocol: Twenty-four healthy rats were selected and randomly divided into 4 groups, 6 rats per group, which were respectively compound of Formula (1), Example 3, Example 4 and Example 7. During the experiment, the rats were fasted overnight before administration, and blood was collected from the orbit before administration, and the plasma was separated, which was taken as the blood concentration sample at 0 h. The gavage solutions were prepared by dispersion with purified water, the concentration of the gavage solutions was 2 mg/ml, and each rat was administered with the compound of Formula (1) at a dose of 20 mg/kg, respectively. After administration, blood samples were collected at 15 min, 0.5 h, 1 h, 2 h, 4 h, 6 h, and 8 h, and each sample was collected about 0.5 ml, anticoagulated with heparin sodium, placed on ice after collection, and centrifuged within 1 hour to separate plasma, which was stored at −80° C. for later test. The drug concentration in plasma was measured by LC-MS/MS.

Consider one compound from patent US20230000863A1, “COMPOSITION CONTAINING AROMATIC HETEROCYCLIC COMPOUND IN AMORPHOUS FORM, AND PREPARATION METHOD THEREFOR AND USE THEREOF” (SHENZHEN CHIPSCREEN BIOSCIENCES CO., LTD., priority 2019, published 2023).

As usually defined, the AUC(0-t) is exposure summed from dosing to a finite time, without extrapolation to infinity. One may read the Cmax as the maximum level reached in the sampled fluid or tissue. As a reminder, the half-life is how long it takes for the measured level to halve. High values mean slow decline, low ones rapid decline. For the compound `C=CC(=O)N(C)c1cc(Nc2ncc(Cl)c(NCCCNC(=O)c3ccc(C#N)cc3)n2)ccc1F` [Compound of Formula (1)], the AUC(0-t) was found to be 30 ng·h/mL in data set [1] (plasma 0-24 h), 235 ng·h/mL in data set [2] (plasma 0-8 h) and 235 ng·h/mL in data set [3] (plasma 0-8 h). Besides, the Cmax worked out at 22 ng/mL in data set [1] (plasma), 243 ng/mL in data set [2] (plasma) and 243 ng/mL in data set [3] (plasma). Also, in data set [1] (plasma), the half-life is 24 min.
